US7906655B2, “Hepatitis C virus inhibitors” (Bristol-Myers Squibb Company, priority 2008, dated 2011)

system: HCV 1b genotype; test: HCV Replicon assay (HCV-neo replicon cells, wild-type); format: cell-based; conditions: HCV 1b genotype replicon; class symbols
Outline: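 Inhibition was measured in HCV-neo (genotype 1b) replicon cells. Some assay versions used luciferase reporters.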

Which EC50 does the source give for `O=C1CC[C@@H](c2nc3cc(CCc4ccc5nc([C@@H]6CCC(=O)N6C(=O)OCc6ccccc6)[nH]c5c4)ccc3[nH]2)N1C(=O)OCc1ccccc1` [OL3, benzyl (2S)-2-(5-(2-(2-((2S)-1-(((benzyloxy)carbonyl)-5-oxo-2-pyrrolidinyl)-1H-benzimidazol-6-yl)ethyl)-1H-benzimidazol-2-yl)-5-oxo-1-pyrrolidinecarboxylate] here?
Its EC50 is 100 to 999 nM.

For `CSCC[C@H](NC(=O)OCc1ccccc1)c1nc2cc(CCc3ccc4nc([C@H](CCSC)NC(=O)OCc5ccccc5)[nH]c4c3)ccc2[nH]1` [OL4, benzyl ((1S)-1-(5-(2-(2-((1S)-1-(((benzyloxy)carbonyl)amino)-3-(methylsulfanyl)propyl)-1H-benzimidazol-6-yl)ethyl)-1H-benzimidazol-2-yl)-3-(methylsulfanyl)propyl) carbamate], which EC50 is on record?
The EC50 was 4.57 to 99 nM.

With `C[C@@H](NC(=O)OCc1ccccc1)c1nc2cc(CCc3ccc4nc([C@@H](C)NC(=O)OCc5ccccc5)[nH]c4c3)ccc2[nH]1` [OL6, benzyl ((1R)-1-(5-(2-(2-(1R)-1-(((benzyloxy)carbonyl)amino)ethyl-1H-benzimidazol-6-yl)ethyl)-1H-benzimidazol-2-yl)ethyl)carbamate] as the compound, how does the EC50 read?
The EC50 was 100 to 999 nM.

same assay, conditions: Hepatitis C virus, HCV 1b genotype replicon; class symbols

How did the EC50 turn out when `COC(=O)N[C@H](C(=O)N1CCC[C@H]1c1nc2cc(Oc3ccc(-c4ccc5[nH]c([C@@H]6CCCN6C(=O)[C@@H](NC(=O)OC)C(C)C)nc5c4)cc3)ccc2[nH]1)C(C)C` [Example V12, Methyl((1S)-1-(((2S)-2-(5-(4-(2-((2S)-1-((2S)-2-((methoxycarbonyl)amino)-3-methylbutanoyl)-2-pyrrolidinyl)-1H-benzimidazol-5-yl)phenoxy)-1H-benzimidazol-2-yl)-1-pyrrolidinyl)carbonyl)-2-methylpropyl)carbamate] was run?
Its EC50 is less than 4.57 nM.

How did the EC50 turn out when `C[C@](O)(C(=O)N1CCC[C@H]1c1nc2ccc(-c3ccc(-c4ccc5nc([C@@H]6CCCN6C(=O)[C@](C)(O)c6ccccc6)[nH]c5c4)o3)cc2[nH]1)c1ccccc1` [JG1, (2R,2′R)-1,1′-(2,5-furandiylbis(1H-benzimidazole-5,2-diyl(2S)-2,1-pyrrolidinediyl))bis(1-oxo-2-phenyl-2-propanol)] was run?
The EC50 was 4.57 to 99 nM.

`O=C([C@H](O)c1ccccc1)N1CCC[C@H]1c1nc2cc(-c3ccc(-c4ccc5[nH]c([C@@H]6CCCN6C(=O)[C@H](O)c6ccccc6)nc5c4)o3)ccc2[nH]1` [JG2, (1R,1′R)-2,2′-(2,5-furandiylbis(1H-benzimidazole-5,2-diyl(2S)-2,1-pyrrolidinediyl))bis(2-oxo-1-phenylethanol)] was tested. Which EC50 did it give?
Its EC50 is less than 4.57 nM.

For `O=C([C@@H](O)c1ccccc1)N1CCC[C@H]1c1nc2cc(-c3ccc(-c4ccc5[nH]c([C@@H]6CCCN6C(=O)[C@@H](O)c6ccccc6)nc5c4)o3)ccc2[nH]1` [JG3, (1S,1′S)-2,2′-(2,5-furandiylbis(1H-benzimidazole-5,2-diyl(2S)-2,1-pyrrolidinediyl))bis(2-oxo-1-phenylethanol)], which EC50 is on record?
Its EC50 is 4.57 to 99 nM.

Which EC50 does the source give for `CN(C)[C@@H](C(=O)N1CCC[C@H]1c1nc2cc(-c3ccc(-c4ccc5nc([C@@H]6CCCN6C(=O)[C@@H](c6ccccc6)N(C)C)[nH]c5c4)o3)ccc2[nH]1)c1ccccc1` [JG4, (1R)-2-((2S)-2-(5-(5-(2-((2S)-1-((2R)-2-(dimethylamino)-2-phenylacetyl)-2-pyrrolidinyl)-1H-benzimidazol-6-yl)-2-furyl)-1H-benzimidazol-2-yl)-1-pyrrolidinyl)-N,N-dimethyl-2-oxo-1-phenylethanamine] here?
The EC50 was less than 4.57 nM.

Which EC50 does the source give for `C[C@H](NC(=O)OCc1ccccc1)c1nc2cc(CCc3ccc4[nH]c([C@H](C)NC(=O)OCc5ccccc5)nc4c3)ccc2[nH]1` [OL1, benzyl((1S)-1-(5-(2-(2-((1)-1-(((benzyloxy)carbonyl)amino)ethyl)-1H-benzimidazol-6-yl)ethyl)-1H-benzimidazol-2-yl)ethyl)carbamate] here?
Its EC50 is 4.57 to 99 nM.

Which EC50 does the source give for `CC(C)(C)O[C@@H]1C[C@@H](c2nc3cc(CCc4ccc5nc([C@@H]6C[C@@H](OC(C)(C)C)CN6C(=O)OCc6ccccc6)[nH]c5c4)ccc3[nH]2)N(C(=O)OCc2ccccc2)C1` [OL5, benzyl (2S,4R)-2-(5-(2-(2-((2S,4R)-1-((benzyloxy)carbonyl)-4-tert-butoxy-2-pyrrolidinyl)-1H-benzimidazol-6-yl)ethyl)-1H-benzimidazol-2-yl)-4-tert-butoxy-1-pyrrolidinecarboxylate] here?
Its EC50 is 100 to 999 nM.

Which EC50 does the source give for `CC[C@H](NC(=O)OCc1ccccc1)c1nc2cc(CCc3ccc4nc([C@H](CC)NC(=O)OCc5ccccc5)[nH]c4c3)ccc2[nH]1` [OL7, benzyl ((1S)-1-(5-(2-(2-((1S)-1-(((benzyloxy)carbonyl)amino)propyl)-1H-benzimidazol-6-yl)ethyl)-1H-benzimidazol-2-yl)propyl)carbamate] here?
Its EC50 is 4.57 to 99 nM.

Which EC50 does the source give for `CC(C)(C)OC(=O)C[C@H](NC(=O)OCc1ccccc1)c1nc2cc(CCc3ccc4nc([C@H](CC(=O)OC(C)(C)C)NC(=O)OCc5ccccc5)[nH]c4c3)ccc2[nH]1` [OL9, tert-butyl (3S)-3-(((benzyloxy)carbonyl)amino)-3-(5-(2-(2-((1S)-1-(((benzyloxy)carbonyl)amino)-3-tert-butoxy-3-oxopropyl)-1H-benzimidazol-6-yl)ethyl)-1H-benzimidazol-2-yl)propanoate] here?
The EC50 was 4.57 to 99 nM.

Which EC50 does the source give for `CC(C)(C)OC(=O)CC[C@H](NC(=O)OCc1ccccc1)c1nc2cc(CCc3ccc4nc([C@H](CCC(=O)OC(C)(C)C)NC(=O)OCc5ccccc5)[nH]c4c3)ccc2[nH]1` [OL10, tert-butyl (4S)-4-(((benzyloxy)carbonyl)amino)-4-(5-(2-(2-((1S)-1-(((benzyloxy)carbonyl)amino)-4-tert-butoxy-4-oxobutyl)-1H-benzimidazol-6-yl)ethyl)-1H-benzimidazol-2-yl)butanoate] here?
Its EC50 is 100 to 999 nM.

Which EC50 does the source give for `O=C(C1CC1)N1CCN(C(=O)OCc2ccccc2)C(c2nc3cc(CCc4ccc5nc(C6CN(C(=O)C7CC7)CCN6C(=O)OCc6ccccc6)[nH]c5c4)ccc3[nH]2)C1` (stereo not shown) [OL12, benzyl 2-(5-(2-(2-(1-((benzyloxy)carbonyl)-4-(cyclopropylcarbonyl)-2-piperazinyl)-1H-benzimidazol-6-yl)ethyl)-1H-benzimidazol-2-yl)-4-(cyclopropylcarbonyl)-1-piperazinecarboxylate] here?
The EC50 was 100 to 999 nM.

`CN(C)C(=O)C[C@H](NC(=O)OCc1ccccc1)c1nc2cc(CCc3ccc4[nH]c([C@H](CC(=O)N(C)C)NC(=O)OCc5ccccc5)nc4c3)ccc2[nH]1` [OL14, benzyl((1S)-1-(5-(2-(2-((1S)-1-(((benzyloxy)carbonyl)amino)-3-(dimethylamino)-3-oxopropyl)-1H-benzimidazol-6-yl)ethyl)-1H-benzimidazol-2-yl)-3-(dimethylamino)-3-oxopropyl)carbamate] was tested. Which EC50 did it give?
The EC50 was 100 to 999 nM.

For `C[C@H](NC(=O)[C@H]1CCCO1)c1nc2cc(CCc3ccc4[nH]c([C@H](C)NC(=O)[C@H]5CCCO5)nc4c3)ccc2[nH]1` [OL15, (2R,2′R)—N,N′-(1,2-ethanediylbis(1H-benzimidazole-5,2-diyl(1S)-1,1-ethanediyl))ditetrahydro-2-furancarboxamide], which EC50 is on record?
The EC50 was 100 to 999 nM.

same assay, conditions: Hepatitis C virus, HCV 1b genotype replicon; numeric values

For `CC(C)(C)OC[C@H](NC(=O)OCc1ccccc1)c1nc2cc(CCc3ccc4nc([C@H](COC(C)(C)C)NC(=O)OCc5ccccc5)[nH]c4c3)ccc2[nH]1` [OL2, benzyl ((1R)-1-(5-(2-(2-((1R)-1-(((benzyloxy)carbonyl)amino)-2-tert-butoxyethyl)-1H-benzimidazol-6-yl)ethyl)-1H-benzimidazol-2-yl)-2-tert-butoxyethyl)carbamate], which EC50 is on record?
The EC50 was 20 nM.

For `CC(C)(C)OC(=O)N1CCN(C(=O)OCc2ccccc2)C(c2nc3cc(CCc4ccc5nc(C6CN(C(=O)OC(C)(C)C)CCN6C(=O)OCc6ccccc6)[nH]c5c4)ccc3[nH]2)C1` (stereo not shown) [OL8, 1-benzyl 4-tert-butyl 2-(5-(2-(2-(1-((benzyloxy)carbonyl)-4-(tert-butoxycarbonyl)-2-piperazinyl)-1H-benzimidazol-6-yl)ethyl)-1H-benzimidazol-2-yl)-1,4-piperazinedicarboxylate], which EC50 is on record?
Its EC50 is 2880 nM.

How did the EC50 turn out when `O=C(c1ccncc1)N1CCN(C(=O)OCc2ccccc2)C(c2nc3cc(CCc4ccc5nc(C6CN(C(=O)c7ccncc7)CCN6C(=O)OCc6ccccc6)[nH]c5c4)ccc3[nH]2)C1` (stereo not shown) [OL13, benzyl 2-(5-(2-(2-(1-((benzyloxy)carbonyl)-4-isonicotinoyl-2-piperazinyl)-1H-benzimidazol-6-yl)ethyl)-1H-benzimidazol-2-yl)-4-isonicotinoyl-1-piperazinecarboxylate] was run?
The EC50 was 8560 nM.
